Measurements from PubChem BioAssay AID179 (DTP/NCI, 2004).
Activity calls are given as the source filed them.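 Rule for the calls: active = compounds giving half or more protection of infected cells from virus-caused growth loss, again on retest; inactive = the rest.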

Tested on: CEM cells HIV-1 protection, formazan growth assay
Assay: NCI AIDS Antiviral Assay
Details: for IC50: measured here: growth of uninfected CEM cells
Outline: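 Steps: treat uninfected and HIV-1-infected human CEM cells at five drug levels; quantify growth by soluble formazan; retest any compound reaching 50% protection; classify actives from the retest.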

Row | SMILES | EC50 | IC50 | outcome
1 | CCC[CH2][Sn]([CH2]CCC)([O]C(=O)c1cccc(F)c1F)[O]C(=O)c1cccc(F)c1F | > 9.55 µM | 3.55 µM | 
2 | COc1ccc2c(c1)[nH]c(=O)c1c3ccccc3[nH]c21 | > 200 µM | 145 µM | 
3 | COc1ccc(/C=C(\C#N)c2ccc([N+](=O)[O-])cc2)cc1[N+](=O)[O-] | 182 µM | 195 µM | 
4 | Fc1cccc2c1[nH]c1c2ncc2[nH]c3ccccc3c21 | > 20 µM | 6.92 µM | 
5 | NS(=O)(=O)c1ccc(NNC(=O)c2cccc3c(=O)c4ccccc4[nH]c23)cc1 | > 200 µM | 58.9 µM | 
6 | CCOP(=O)(OCC)OC1C=CC2CCC1C2 (stereo not given) | > 191 µM | > 191 µM | 
7 | CSc1nc2c(nc(C)c(=O)n2C2OCC(OC(C)=O)C(OC(C)=O)C2OC(C)=O)c(=O)[nH]1 (stereo not given) | > 513 µM | > 513 µM | 
8 | Cc1c(CCCl)c(Cl)n2c(nc3ccccc32)c1C#N | > 33.9 µM | 0.537 µM | 
9 | Nc1nc2ncn(COC(CO)CO)c2c(=O)[nH]1 | > 200 µM | > 200 µM | 
10 | CC1=Nc2ccccc2SC(c2c(Cl)cccc2Cl)C1 (stereo not given) | > 22.4 µM | 4.57 µM | 
11 | C#CCOCn1cnc2ncnc(Cl)c21 | > 1120 µM | > 200 µM | 
12 | NCCCNCCSSCCCCS(=O)O |  |  | inactive
13 | CCCCCCCC/C=C\CCCCCCC(F)C(=O)O (stereo not given) | 33.1 µM | > 200 µM | 
14 | CCOC(=O)C(=C/C=C/N[C@@H](Cc1c[nH]c2ccccc12)C(N)=O)C(=O)OCC | > 18.2 µM | > 18.2 µM | 
15 | Cc1ccc2c(c1)C(=O)C(Cc1ccccc1C(=O)O)C2 (stereo not given) | > 200 µM | 178 µM | 
16 | CSc1c(C(=O)Nc2ccc(C)cc2)c(N)[nH]c(=O)c1C#N | > 95.5 µM | 75.9 µM | 
17 | O=C(NCCO)c1cc2c(cn1)[nH]c1ccccc12 |  |  | inactive
18 | O=S(Cl)C(Cl)=C(Cl)Cl (stereo not given) | > 200 µM | 40.7 µM | 
19 | COc1cc2ccnc([C@@H](OC(=O)c3ccccc3)c3ccc(OC)c(OC)c3OC)c2cc1OC |  |  | inactive
20 | COCc1cn(C2CCC(CO)O2)c(=O)nc1N (stereo not given) | > 490 µM | > 490 µM | 
21 | CCCCCCCCC(=O)N(C)C1C2CN3CCC(O2)C13 (stereo not given) |  |  | inactive
22 | O=[N+]([O-])O | > 200 µM | > 200 µM | 
23 | O=C(Cn1c2c(c3ccccc31)CCCC2)N1CCCC1 | > 200 µM | > 200 µM | 

Row | SMILES | EC50 | IC50 | outcome
24 | O=C(ONC(=O)[C@H]1C2C=CC(C2)[C@@H]1C(=O)NOC(=O)c1ccccc1)c1ccccc1 | > 200 µM | 5.37 µM | 
25 | CCOC(=O)C1=C(C)C(C(=O)OC)[C@]2(C)C(C(=O)OCC)=C(O)C(C(=O)OC)[C@]12C (stereo not given in full) | > 126 µM | > 126 µM | 
26 | O=C(Nc1ccc(C2=NCCN2)cc1)c1ccc(C(=O)Nc2ccc(C3=NCCN3)cc2)c([N+](=O)[O-])c1 | > 200 µM | 29.5 µM | 
27 | C[C@]1(CO)CCC[C@@]2(C)C1CC[C@H]1CC3C[C@]12CC[C@]3(C)O (stereo not given in full) | > 23.4 µM | > 23.4 µM | 
28 | S=C1SSC(=S)SS1 | > 33.1 µM | > 33.1 µM | 
29 | Cc1cc(Cl)ccc1NC(=O)CC1SC(=NC(=O)c2ccccc2Cl)NC1=O (stereo not given) | > 16.6 µM | > 16.6 µM | 
30 | CCc1c2[n-]c(c1C)/C=c1\[n-]/c(c(C)c1CC)=C\c1[n-]c(c(CCC(=O)O)c1C)/C=c1\[n-]/c(c(C)c1CCC(=O)O)=C\2.[Zn] | > 21.4 µM | 13.5 µM | 
31 | CC1(C)C2CCC1(C)C(OC(=O)/C=C/C(=O)OC1CC3CCC1(C)C3(C)C)C2 (stereo not given) |  |  | inactive
32 | NC(=O)c1ncn2c(=O)n(CCCl)nnc12 | > 1020 µM | 24.5 µM | 
33 | COC(=O)N1C=CC2ON=C(OC)C2C1c1ccccc1 (stereo not given) | > 46.8 µM | > 46.8 µM | 
34 | CCOC(=O)c1c(-c2ccc(OC)cc2)c(C#N)c(=S)n(C2OC(CO)C(O)C(O)C2O)c1-c1ccccc1 (stereo not given) | > 200 µM | 34.7 µM | 
35 | CC(=O)Nc1c(C#N)c2n(c1C(=O)Nc1ccccc1)CCC2 | > 200 µM | > 200 µM | 
36 | [N-]=[N+]=N/C1=C/CCCCC(=O)C1 |  |  | inactive
37 | CC(C)c1nsc(N)c1C(N)=O | > 200 µM | > 200 µM | 
38 | COc1cc(C2c3cc(O)c(OC)cc3C[C@@H]3C(=O)OCC23)ccc1O (stereo not given in full) | > 263 µM | > 263 µM | 
39 | COC(=O)C(C)(C)C(=O)C(C)(C)P(C)(=O)OC (stereo not given) | > 200 µM | > 200 µM | 
40 | Cc1nnc(N)nc1/C=C\c1ccc(N(C)C)cc1 | > 200 µM | 3.47 µM | 
41 | CCCN(CCC)C(=O)Cc1c2n(c3ccccc13)CCCc1ccccc1-2 | > 13.8 µM | > 13.8 µM | 
42 | COc1cc(NCCN(CC(C)C)C(C)C(C)C)c2ncccc2c1 (stereo not given) | > 200 µM | 37.2 µM | 
43 | Cc1ccc(NC(=S)/N=C/c2c(O)[nH]c(=O)[nH]c2=O)c(C)c1 | > 200 µM | 151 µM | 
44 | Cn1c(=O)c2c(nc3[nH]c(=O)c(Br)cn32)n(C)c1=O | > 100 µM | 20.4 µM | 
45 | Cc1cc(=O)oc(C)c1C(=O)O | > 200 µM | > 200 µM | 
46 | c1ccc(-c2nnc3nn4c(-c5ccccc5)cnnc4c3c2-c2ccccc2)cc1 | > 9.33 µM | > 9.33 µM | 

Row | SMILES | EC50 | IC50 | outcome
47 | CC(=O)OCCOCn1c2ccccc2c2c3c(c4c5ccccc5n(COCCO)c4c21)C(=O)N(Cc1ccccc1)C3=O |  |  | inactive
48 | CC/C(=C\c1ccc(OC)cc1)c1ccc(OC)cc1 | > 200 µM | > 200 µM | 
49 | COc1ccc(-c2c(C)c(C(=O)O)nc(-c3ccc4c(O)c(OC)c5c(c4n3)=NC(C)(C)N=5)c2N)c(O)c1OC | > 457 µM | 2.4 µM | 
50 | Cn1c(=O)c2[nH]c(N=O)nc2n(C)c1=O | > 200 µM | > 200 µM | 
51 | COC(=O)c1cc(Cl)ccc1NC(=O)c1ccc([N+](=O)[O-])cc1 |  |  | inactive
52 | NC1(C(=O)O)CCCC1c1ccccc1 (stereo not given) | > 6.61 µM | > 6.61 µM | 
53 | C=CCC1CCN(C=C)C1=O (stereo not given) | > 1660 µM | 1580 µM | 
54 | O=c1c(Cl)c(Cl)cnn1CCc1ccncc1 | > 132 µM | 7.08 µM | 
55 | COC(O)C(=O)c1c2c(cc3c1CC1(Cc4cc5c(cc4C1)CCC5)C3)CCC2 (stereo not given) | > 200 µM | 33.1 µM | 
56 | NC1CCC(C(=O)C2CCC(O)CC2O)CC1 (stereo not given) | > 200 µM | 18.2 µM | 
57 | N#CC(C#N)=Cc1cccc(Cl)c1 | > 117 µM | 22.4 µM | 
58 | O=C1NCC2=C1CCC1c3ccccc3CCN21 (stereo not given) | > 200 µM | > 200 µM | 
59 | COc1cc(OCc2nc3cc(C(F)(F)F)ccc3nc2-c2ccccc2)cc(OC)c1OC | > 200 µM | 89.1 µM | 
60 | CON(C(=O)OC(C)(C)C)c1ccccc1 | 61.7 µM | > 200 µM | 
61 | CCCCCCCCCCCCCC/C=C\C(CC(=O)O)C(=O)O (stereo not given) | > 15.1 µM | > 15.1 µM | 
62 | COc1ccc2c(c1)OC[C@@H]1c3ccc(OCc4ccccc4)cc3O[C@H]21 | 46.8 µM | > 200 µM | 
63 | O=C(c1ccc(F)cc1)c1cccc(C(=O)c2ccc(F)cc2)n1 | > 30.9 µM | > 30.9 µM | 
64 | CCN1CC2(COC)C(O)CC(OC)C34C5CC6(O)C(OC)C=C(C5C6OC(=O)c5ccc(OC)c(OC)c5)C(C(OC)C23)C14 (stereo not given) |  |  | inactive
65 | [O-][N+]1=NC(c2ccccc2)=C1c1ccccc1 | > 50.1 µM | > 50.1 µM | 
66 | O=c1[nH]nc(Cc2ccc([N+](=O)[O-])cc2)[nH]1 | > 200 µM | > 200 µM | 
67 | Cc1nc(N)c(N2CCN(C#N)CC2)c(=O)[nH]1 | > 200 µM | > 200 µM | 
